Measurements from ChEMBL document CHEMBL4673259, “Discovery of isoquinolinone and naphthyridinone-based inhibitors of poly(ADP-ribose) polymerase-1 (PARP1) as anticancer agents: Structure activity relationship and preclinical characterization” (Bioorg Med Chem, 2020).
Calls of active or inactive are those of the source. No cut-off for these calls is given here.

Experiments:
[1] = biological target: T1, Poly [ADP-ribose] polymerase 1 (Homo sapiens, UniProt P09874); test: Inhibition of N-terminal GST-tagged human full length PARP1 (2 to 1041 residues) expressed in baculovirus infected Sf9 cells using histone mixture (H2A and H2B) and biotinylated NAD+ as substrate in presence of activated DNA incubated for 60 mins by chemiluminescence assay
T1 sequence (P09874 whole entry, the tested form may be a part): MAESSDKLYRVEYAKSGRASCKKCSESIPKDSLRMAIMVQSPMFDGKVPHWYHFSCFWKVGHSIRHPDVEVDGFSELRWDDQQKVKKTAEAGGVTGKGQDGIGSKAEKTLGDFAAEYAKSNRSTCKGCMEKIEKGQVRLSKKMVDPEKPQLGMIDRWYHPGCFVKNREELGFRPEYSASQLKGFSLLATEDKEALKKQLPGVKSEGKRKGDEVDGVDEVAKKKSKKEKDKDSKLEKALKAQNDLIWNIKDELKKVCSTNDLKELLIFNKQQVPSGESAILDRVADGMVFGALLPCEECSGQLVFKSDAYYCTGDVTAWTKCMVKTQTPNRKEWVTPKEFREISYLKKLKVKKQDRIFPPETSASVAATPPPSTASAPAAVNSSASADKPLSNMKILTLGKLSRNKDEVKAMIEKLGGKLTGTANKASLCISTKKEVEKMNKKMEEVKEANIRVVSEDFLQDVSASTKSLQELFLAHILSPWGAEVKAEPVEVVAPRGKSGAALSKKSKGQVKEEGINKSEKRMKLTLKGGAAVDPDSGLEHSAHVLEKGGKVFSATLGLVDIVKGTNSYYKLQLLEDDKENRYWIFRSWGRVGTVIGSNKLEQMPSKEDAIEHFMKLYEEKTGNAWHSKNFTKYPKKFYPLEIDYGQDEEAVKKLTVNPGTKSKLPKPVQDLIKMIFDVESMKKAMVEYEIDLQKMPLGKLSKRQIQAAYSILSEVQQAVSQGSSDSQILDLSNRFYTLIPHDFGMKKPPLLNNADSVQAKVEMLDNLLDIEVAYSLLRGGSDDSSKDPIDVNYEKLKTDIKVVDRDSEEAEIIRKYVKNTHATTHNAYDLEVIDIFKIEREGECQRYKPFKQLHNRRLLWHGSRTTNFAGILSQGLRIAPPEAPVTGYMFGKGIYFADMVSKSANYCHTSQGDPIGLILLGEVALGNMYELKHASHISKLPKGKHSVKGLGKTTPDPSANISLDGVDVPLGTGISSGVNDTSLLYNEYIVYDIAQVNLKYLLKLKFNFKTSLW

[2] = biological target: T1, Poly [ADP-ribose] polymerase 1; test: Inhibition of PARP1 in human MDA-MB-436 cells assessed as inhibition of PARylation at 10 nM incubated for 1 hr by chemiluminescence assay; assay type: cell-based
[3] = system: MDA-MB-436; test: Cytotoxicity against human MDA-MB-436 cells assessed as inhibition of cell viability incubated for 4 days by CellTiterGlo luminescence assay; conditions: MDA-MB-436, 96 h
[4] = Tmax in BALB/c mouse at 1 mg/kg, iv measured up to 24 hrs by LC-MS/MS analysis; assay type: ADME, organism-based; conditions: in vivo
[5] = Tmax in BALB/c mouse at 10 mg/kg, po measured up to 24 hrs by LC-MS/MS analysis; assay type: ADME, organism-based; conditions: in vivo
[6] = Cmax in BALB/c mouse at 1 mg/kg, iv measured up to 24 hrs by LC-MS/MS analysis; assay type: ADME, organism-based; parameters: route intravenous, dose 1 mg/kg, time <=24; conditions: in vivo
[7] = AUClast in BALB/c mouse at 1 mg/kg, iv measured up to 24 hrs by LC-MS/MS analysis; assay type: ADME, organism-based; parameters: route intravenous, dose 1 mg/kg, time <=24; conditions: in vivo
[8] = AUClast in BALB/c mouse at 10 mg/kg, po measured up to 24 hrs by LC-MS/MS analysis; assay type: ADME, organism-based; parameters: route oral, dose 10 mg/kg, time <=24; conditions: in vivo
[9] = Volume of distribution at steady state in BALB/c mouse at 1 mg/kg, iv measured up to 24 hrs by LC-MS/MS analysis; assay type: ADME, organism-based; conditions: in vivo, read-out: Vdss
[10] = Oral bioavailability in BALB/c mouse at 10 mg/kg measured up to 24 hrs by LC-MS/MS analysis; assay type: ADME, organism-based; conditions: in vivo
[11] = biological target: CYP1A2 (Homo sapiens, UniProt P05177); test: Inhibition of CYP1A2 (unknown origin) at 10 uM relative to control; assay type: ADME
CYP1A2, sequence (P05177 whole entry): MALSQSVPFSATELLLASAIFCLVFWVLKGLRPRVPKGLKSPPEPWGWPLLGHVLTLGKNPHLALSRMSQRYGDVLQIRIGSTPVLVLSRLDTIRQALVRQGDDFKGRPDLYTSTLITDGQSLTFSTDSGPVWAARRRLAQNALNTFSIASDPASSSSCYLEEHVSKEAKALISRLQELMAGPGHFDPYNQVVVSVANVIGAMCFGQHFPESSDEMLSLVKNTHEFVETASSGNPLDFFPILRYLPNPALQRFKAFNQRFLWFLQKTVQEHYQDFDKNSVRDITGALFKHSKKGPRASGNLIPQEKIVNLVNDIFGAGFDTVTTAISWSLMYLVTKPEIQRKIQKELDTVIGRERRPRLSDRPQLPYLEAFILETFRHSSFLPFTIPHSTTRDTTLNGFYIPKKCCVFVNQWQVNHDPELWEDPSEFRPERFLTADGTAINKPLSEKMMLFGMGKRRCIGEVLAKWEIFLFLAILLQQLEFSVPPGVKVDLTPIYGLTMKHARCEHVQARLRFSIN

[12] = biological target: CYP2B6 (Homo sapiens, UniProt P20813); test: Inhibition of CYP2B6 (unknown origin) at 10 uM relative to control; assay type: ADME
CYP2B6, sequence (P20813 whole entry): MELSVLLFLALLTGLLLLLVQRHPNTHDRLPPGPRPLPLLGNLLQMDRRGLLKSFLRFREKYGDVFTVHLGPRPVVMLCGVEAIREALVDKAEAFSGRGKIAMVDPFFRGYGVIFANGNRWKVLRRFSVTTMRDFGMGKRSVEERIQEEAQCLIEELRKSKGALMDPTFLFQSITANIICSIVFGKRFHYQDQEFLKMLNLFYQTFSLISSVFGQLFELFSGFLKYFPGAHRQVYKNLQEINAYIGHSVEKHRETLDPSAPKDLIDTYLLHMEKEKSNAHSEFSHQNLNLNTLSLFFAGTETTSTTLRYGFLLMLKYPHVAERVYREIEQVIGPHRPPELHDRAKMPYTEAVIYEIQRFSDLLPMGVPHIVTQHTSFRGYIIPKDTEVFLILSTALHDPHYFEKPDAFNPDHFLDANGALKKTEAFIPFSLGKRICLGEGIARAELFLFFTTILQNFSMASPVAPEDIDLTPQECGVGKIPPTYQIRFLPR

[13] = biological target: CYP2C9 (Homo sapiens, UniProt P11712); test: Inhibition of CYP2C9 (unknown origin) at 10 uM relative to control; assay type: ADME
CYP2C9, sequence (P11712 whole entry): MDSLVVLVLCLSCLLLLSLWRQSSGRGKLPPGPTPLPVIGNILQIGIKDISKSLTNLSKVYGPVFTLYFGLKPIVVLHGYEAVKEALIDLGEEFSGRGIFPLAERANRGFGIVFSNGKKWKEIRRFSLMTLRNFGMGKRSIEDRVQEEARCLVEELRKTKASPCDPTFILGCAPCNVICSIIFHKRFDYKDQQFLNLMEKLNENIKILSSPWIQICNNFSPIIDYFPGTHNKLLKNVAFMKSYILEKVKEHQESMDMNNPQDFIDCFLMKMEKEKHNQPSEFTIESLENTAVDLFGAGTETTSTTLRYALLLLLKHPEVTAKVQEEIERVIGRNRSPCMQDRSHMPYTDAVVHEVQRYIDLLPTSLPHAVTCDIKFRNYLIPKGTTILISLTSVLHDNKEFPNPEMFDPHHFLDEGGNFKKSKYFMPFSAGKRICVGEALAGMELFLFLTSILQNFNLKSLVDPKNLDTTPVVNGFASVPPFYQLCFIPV

[14] = biological target: CYP2E1 (Homo sapiens, UniProt P05181); test: Inhibition of CYP2E1 (unknown origin) at 10 uM relative to control; assay type: ADME
[15] = Metabolic stability of the compound in mouse plasma measured up to 4 hrs; assay type: ADME, cell-free; conditions: read-out: Stabilty
[16] = Metabolic stability of the compound in rat plasma measured up to 4 hrs; assay type: ADME, cell-free; conditions: read-out: Stabilty
[17] = Protein binding in human plasma; assay type: ADME, cell-free; conditions: read-out: PPB (converted)
[18] = Protein binding in mouse plasma; assay type: ADME, cell-free; conditions: read-out: PPB (converted)
[19] = Protein binding in rat plasma; assay type: ADME, cell-free; conditions: read-out: PPB (converted)
[20] = system: MCF7; test: Cytotoxicity against human MCF7 cells harboring wild type BRCA at 1000 nM relative to control; assay type: cell-based; conditions: mcf7, 1 µM
[21] = system: HEK293; test: Cytotoxicity against HEK293 cells at 1000 nM relative to control; assay type: cell-based; conditions: human, hek293, 1 µM
[22] = system: MDA-MB-436; test: Anticancer activity against human MDA-MB-436 cells harboring BRCA mutant xenografted in po dosed SCID/nude mouse assessed as tumor growth regression administered bid and measured up to 5 weeks post-drug administration; assay type: functional, organism-based; conditions: dose 0.015-0.15 mg/kg, time weeks <=5
[23] = system: MDA-MB-436; test: Anticancer activity against human MDA-MB-436 cells harboring BRCA mutant xenografted in SCID/nude mouse assessed as tumor growth regression at 0.015 mg/kg, po bid and measured up to 5 weeks post-drug administration; assay type: functional; conditions: MDA-MB-436, po, 840 h, time weeks <=5
[24] = system: MDA-MB-436; test: Anticancer activity against human MDA-MB-436 cells harboring BRCA mutant xenografted in SCID/nude mouse assessed as tumor growth regression at 0.05 mg/kg, po bid and measured up to 5 weeks post-drug administration; assay type: functional; conditions: MDA-MB-436, po, 840 h, time weeks <=5
[25] = system: MDA-MB-436; test: Potentiation of anticancer activity against human MDA-MB-436 cells harboring BRCA mutant xenografted in SCID/nude mouse assessed as tumor growth inhibition at 0.15 mg/kg, po bid for 12 days co-administered with TMZ measured up to 9 weeks post drug administration; assay type: functional; conditions: MDA-MB-436, po, 288 h, time 12 day
[26] = system: MDA-MB-436; test: Potentiation of anticancer activity against human MDA-MB-436 cells harboring BRCA mutant xenografted in SCID/nude mouse assessed as tumor growth inhibition at 0.15 mg/kg, po bid for 12 days co-administered with TMZ measured after drug administration cessation; assay type: functional, organism-based; conditions: time 12.0 day
[27] = system: SK-ES1; test: Potentiation of anticancer activity against human SK-ES-1 cells harboring EWSF1 translocation xenografted in SCID/nude mouse assessed as tumor growth inhibition at 0.15 mg/kg, po bid for 12 days co-administered with TMZ measured up to 9 weeks post drug administration; assay type: functional; conditions: 288 h, time 12 day
[28] = system: CAPAN-1; test: Antitumor activity against human CAPAN1 cells xenografted in SCID/nude mouse assessed as tumor growth inhibition at 0.1 mg/kg, po bid measured up to 5 weeks post drug administration; assay type: functional; conditions: CAPAN-1, po, 840 h, time weeks <=5
[29] = system: SK-ES1; test: Antitumor activity against human SK-ES-1 cells xenografted in SCID/nude mouse assessed as tumor growth inhibition at 0.45 mg/kg, po bid measured up to 5 weeks post drug administration; assay type: functional; conditions: 840 h, time weeks <=5
[30] = biological target: Poly [ADP-ribose] polymerase tankyrase-2 (Homo sapiens, UniProt Q9H2K2); test: Inhibition of TNKS2 (unknown origin)
Poly [ADP-ribose] polymerase tankyrase-2, sequence (Q9H2K2 whole entry): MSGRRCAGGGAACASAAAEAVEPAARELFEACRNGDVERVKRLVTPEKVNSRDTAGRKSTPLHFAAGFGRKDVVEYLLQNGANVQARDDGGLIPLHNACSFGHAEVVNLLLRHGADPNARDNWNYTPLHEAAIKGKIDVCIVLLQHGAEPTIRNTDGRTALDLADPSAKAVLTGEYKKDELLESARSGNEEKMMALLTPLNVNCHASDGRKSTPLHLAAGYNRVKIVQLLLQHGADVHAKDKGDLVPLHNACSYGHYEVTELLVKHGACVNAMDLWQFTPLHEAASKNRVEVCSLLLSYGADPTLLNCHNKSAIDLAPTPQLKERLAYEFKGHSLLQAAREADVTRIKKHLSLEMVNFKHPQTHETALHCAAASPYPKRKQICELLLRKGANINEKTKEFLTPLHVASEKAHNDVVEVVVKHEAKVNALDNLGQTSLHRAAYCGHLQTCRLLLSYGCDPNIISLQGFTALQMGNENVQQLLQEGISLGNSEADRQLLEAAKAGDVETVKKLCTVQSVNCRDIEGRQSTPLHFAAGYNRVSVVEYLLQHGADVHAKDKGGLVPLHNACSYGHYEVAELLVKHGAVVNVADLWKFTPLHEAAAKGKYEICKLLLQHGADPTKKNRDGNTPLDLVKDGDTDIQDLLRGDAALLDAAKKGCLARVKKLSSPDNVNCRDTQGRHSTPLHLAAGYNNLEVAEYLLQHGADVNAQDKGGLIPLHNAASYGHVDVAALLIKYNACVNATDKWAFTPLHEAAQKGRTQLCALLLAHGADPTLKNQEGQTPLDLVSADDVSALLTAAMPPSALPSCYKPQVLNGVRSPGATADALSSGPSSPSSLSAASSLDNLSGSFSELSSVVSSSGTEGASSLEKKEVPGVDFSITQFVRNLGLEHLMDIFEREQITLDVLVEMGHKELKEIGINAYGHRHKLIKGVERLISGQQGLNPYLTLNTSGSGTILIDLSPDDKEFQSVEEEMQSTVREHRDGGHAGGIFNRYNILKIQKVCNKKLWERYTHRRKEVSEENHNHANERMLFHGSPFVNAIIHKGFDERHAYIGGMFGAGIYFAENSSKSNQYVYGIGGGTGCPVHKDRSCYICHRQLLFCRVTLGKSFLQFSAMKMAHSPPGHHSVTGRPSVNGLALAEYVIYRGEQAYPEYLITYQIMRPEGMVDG

[31] = biological target: 5-hydroxytryptamine receptor 2B (Homo sapiens) (UniProt P41595); test: Displacement of [3H]mesulergine from human recombinant 5-HT2B receptor at 10 uM incubated for 60 mins by radiometric scintillation analysis
[32] = biological target: Adrenergic receptor alpha-1 (Homo sapiens) (UniProt P35348+P25100+P35368); test: Binding affinity to alpha1 adrenoceptor (unknown origin) at 10 uM; assay type: protein assay
[33] = Toxicity against SCID/nude mouse xenografted with human MDA-MB-436 cells harboring BRCA mutant assessed as body weight loss at 0.15 mg/kg, po bid for 12 days co-administered with 35 mg/kg, po TMZ; assay type: organism-based; conditions: in vivo, 288 h, time 12 day
[34] = biological target: Mitogen-activated protein kinase kinase kinase 14 (Homo sapiens) (UniProt Q99558); test: Inhibition of NIK (unknown origin) at 10 uM
Mitogen-activated protein kinase kinase kinase 14 (Homo sapiens), sequence (Q99558 whole entry, looked up): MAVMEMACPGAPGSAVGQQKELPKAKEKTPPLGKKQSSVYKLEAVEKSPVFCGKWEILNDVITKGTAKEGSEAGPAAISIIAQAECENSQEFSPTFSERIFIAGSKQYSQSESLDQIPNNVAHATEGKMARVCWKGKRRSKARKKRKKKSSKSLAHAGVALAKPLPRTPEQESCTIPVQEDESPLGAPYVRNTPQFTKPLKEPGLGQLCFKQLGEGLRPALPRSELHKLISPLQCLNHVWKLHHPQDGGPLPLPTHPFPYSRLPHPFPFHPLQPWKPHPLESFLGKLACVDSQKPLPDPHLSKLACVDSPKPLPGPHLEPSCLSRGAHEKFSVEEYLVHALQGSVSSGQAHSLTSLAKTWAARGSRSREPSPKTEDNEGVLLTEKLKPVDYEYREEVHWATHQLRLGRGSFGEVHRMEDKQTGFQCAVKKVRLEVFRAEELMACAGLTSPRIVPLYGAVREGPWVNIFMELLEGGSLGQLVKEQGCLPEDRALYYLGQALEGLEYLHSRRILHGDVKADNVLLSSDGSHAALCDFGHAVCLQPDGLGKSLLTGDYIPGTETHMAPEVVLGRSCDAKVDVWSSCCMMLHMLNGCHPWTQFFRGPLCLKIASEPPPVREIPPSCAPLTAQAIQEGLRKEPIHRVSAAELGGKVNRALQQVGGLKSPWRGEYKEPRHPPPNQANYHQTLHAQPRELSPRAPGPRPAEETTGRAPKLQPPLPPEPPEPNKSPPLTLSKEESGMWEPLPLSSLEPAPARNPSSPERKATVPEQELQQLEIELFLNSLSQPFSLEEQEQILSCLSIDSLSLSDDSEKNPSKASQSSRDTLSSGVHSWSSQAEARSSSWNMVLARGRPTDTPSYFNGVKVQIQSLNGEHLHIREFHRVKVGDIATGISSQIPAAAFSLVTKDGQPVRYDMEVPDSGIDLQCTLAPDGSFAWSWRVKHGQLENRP

[35] = Toxicity in rat assessed as NOAEL for CNS effect; conditions: in vivo
[36] = Toxicity in rat assessed as NOAEL for respiratory effect; conditions: in vivo
[37] = Toxicity against SCID/nude mouse xenografted with human CAPAN-1 cells harboring BRCA mutant assessed as body weight loss at 0.15 mg/kg, po bid for 12 days co-administered with 35 mg/kg, po TMZ; assay type: organism-based; conditions: in vivo, 288 h, time 12 day
[38] = Toxicity against SCID/nude mouse xenografted with human SK-ES-1 cells harboring EWSF1 translocation assessed as body weight loss at 0.15 mg/kg, po bid for 12 days co-administered with 35 mg/kg, po TMZ; assay type: organism-based; conditions: in vivo, 288 h, time 12 day

IC50 [1]: 1.1 nM
inhibition [2]: 82%
Tmax [4]: 4.8 min
Tmax [5]: 60 min
Cmax [6]: 11 µM
AUC(0-t) at 24 h [7]: 94 µM·h
AUC(0-t) at 24 h [8]: 403 µM·h
Vd [9]: 0.2 L/kg
bioavailability [10]: 43%
inhibition at 10 µM [11]: ≤ 23%
inhibition at 10 µM [12]: ≤ 23%
inhibition at 10 µM [13]: ≤ 23%
inhibition at 10 µM [14]: ≤ 23%
remaining at 4 h [15]: 80%
remaining at 4 h [16]: 80%
fraction unbound [17]: 0.017
fraction unbound [18]: 0.074
fraction unbound [19]: 0.056
IC50 [30]: 74 nM
Activity [31]: 70%
Activity [32]: 70%
inhibition [34]: 65%
Compound: N#Cc1ccc(N2CCN([C@H]3C=C(c4cc5ncccc5c(=O)[nH]4)CC3)CC2)cc1
IC50 [3]: 0.035 nM
Activity [20]: 36%
Activity [21]: 72%
Activity [22]: Dose-dependent effect
inhibition in vivo at 0.015 mg/kg [23]: 50%
inhibition in vivo at 0.05 mg/kg [24]: 83%
inhibition in vivo at 0.15 mg/kg [25]: > 90%
Activity [26]: Active
inhibition in vivo at 0.15 mg/kg [27]: 89%
inhibition in vivo at 0.1 mg/kg [28]: 46.1%
inhibition in vivo at 0.45 mg/kg [29]: 20%
Activity [33]: Non-Toxic
NOAEL [35]: 30 mg/kg/day
NOAEL [36]: 30 mg/kg/day
Activity [37]: Non-Toxic
Activity [38]: Non-Toxic
